This test relates to healthy rat plasma glyoxylate concentrations. Put plainly: Rats treated with anti-diabetic drug metformin: 28-day oral gavage study, plasma metabolite profiling of glyoxylate. The note with it: for Ratio treatment/control of plasma glyoxylate: fasted plasma. The format is in vivo. The protocol: Two groups of each 5 male and female rats was dosed once daily with the indicated compounds with a different dose per group (see below) over 28 days.
Each dose group in the studies consisted of five rats per sex. Additional groups of each 15 male and 15 female animals served as controls. Before starting the treatment period, animals, which were 62-64 days old when supplied, were acclimatized to the housing and environmental conditions for 7 days. All animals of the animal population were kept under the same constant temperature (20-24±3° C.) and the same constant humidity (30-70%). The animals of the animal population were fed ad libitum. The food to be used was essentially free of chemical or microbial contaminants. Drinking water was also offered ad libitum. Accordingly, the water was free of chemical and microbial contaminants as laid down in the European Drinking Water Directive 98/83/EG. The illumination period was 12 hours light followed by 12 hours darkness (12 hours light, from 6:00 to 18:00, and 12 hours darkness, from 18:00 to 6:00). The studies were performed in an AAALAC-approved laboratory in accordance with the German Animal Welfare Act and the European Council Directive 86/609/EE. The test system was arranged according to the OECD 407 guideline for the testing of chemicals for repeated dose 28-day oral toxicity study in rodents. The test substance was dosed and administered as follows:
Metformin hydrochloride was administered by gavage (high dose group at 1 g/kg body weight, low dose group at 0.2 g/kg body weight), in drinking water containing 0.5% Carboxymethyl cellulose (Tylose CB30000) (administration volume: 10 ml/kg body weight).
In the morning of day 7, 14, and 28, blood was taken from the retroorbital venous plexus from fasted anaesthetized animals. From each animal, 1 ml of blood was collected with EDTA as anticoagulant. The samples were centrifuged for generation of plasma. All plasma samples were covered with a N2 atmosphere and then stored at −80° C. until analysis.
For mass spectrometry-based metabolite profiling analyses plasma samples were extracted and a polar and a non-polar (lipid) fraction was obtained. For GC-MS analysis, the non-polar fraction was treated with methanol under acidic conditions to yield the fatty acid methyl esters. Both fractions were further derivatised with O-methyl-hydroxyamine hydrochloride and pyridine to convert Oxo-groups to O-methyloximes and subsequently with a silylating agent before analysis. In LC-MS analysis, both fractions were reconstituted in appropriate solvent mixtures. HPLC was performed by gradient elution on reversed phase separation columns. Mass spectrometric detection which allows target and high sensitivity MRM (Multiple Reaction Monitoring) profiling in parallel to a full screen analysis was applied as described in WO2003073464.
Following comprehensive analytical validation steps, the data for each analyte were normalized against data from pool samples. These samples were run in parallel through the whole process to account for process variability. The significance of treatment group values specific for sex, treatment duration and metabolite was determined by comparing means of the treated groups to the means of the respective untreated control groups using WELCH-test and quantified with treatment ratios versus control and p-values.

Molecules are shown by their SMILES. Counter-ions that a name gives are not always drawn.

As to `CN(C)C(=N)NC(=N)N` [Metformin hydrochloride, N,N-dimethylimidodicarbonimidic diamide], the “Ratio treatment/control of plasma glyoxylate” value runs as follows: (High Dose 1 g/kg body weight by gavage once daily, female rats, day 7 (f7)) 0.82; (High Dose 1 g/kg body weight by gavage once daily, female rats, day 14 (f14)) 0.58; (High Dose 1 g/kg body weight by gavage once daily, female rats, day 28 (f28)) 0.52; (High Dose 1 g/kg body weight by gavage once daily, male rats, day 7 (m7)) 0.22; (High Dose 1 g/kg body weight by gavage once daily, male rats, day 14 (m14)) 0.29; (High Dose 1 g/kg body weight by gavage once daily, male rats, day 28 (m28)) 0.58. The “Ratio treatment/control of plasma glyoxylate” value runs as follows: (Low Dose 0.2 g/kg body weight by gavage once daily, female rats, day 7 (f7)) 1.01; (Low Dose 0.2 g/kg body weight by gavage once daily, female rats, day 14 (f14)) 0.72; (Low Dose 0.2 g/kg body weight by gavage once daily, female rats, day 28 (f28)) 0.64; (Low Dose 0.2 g/kg body weight by gavage once daily, male rats, day 7 (m7)) 0.59; (Low Dose 0.2 g/kg body weight by gavage once daily, male rats, day 14 (m14)) 0.65; (Low Dose 0.2 g/kg body weight by gavage once daily, male rats, day 28 (m28)) 0.44. Besides, the “Effect on glyoxylate concentrations in rat model system (summary in words)” value (rat model system, summary of Table 8) is given as “capable of reducing glyoxylate concentrations”.

The values above are taken from US20130295692A1, “MEANS AND METHODS FOR PREDICTING DIABETES” (METANOMICS HEALTH GMBH, priority 2010, published 2013).
